Test results: PMC7756445, “A Novel Prodrug of a nNOS Inhibitor with Improved Pharmacokinetic Potential” (Chemmedchem, 2020)

How the values were obtained:
[1] = biological target: T1, mARC2 (Homo sapiens, UniProt Q969Z3); assay: Bioconversion with the mARC enzyme system (UV/Vis NADH assay, LC-MS); assay type: in vitro ADME; settings: for conversion to reduced amidine 1 (LC-MS): mARC2 incubation
T1 sequence (Q969Z3 36-335): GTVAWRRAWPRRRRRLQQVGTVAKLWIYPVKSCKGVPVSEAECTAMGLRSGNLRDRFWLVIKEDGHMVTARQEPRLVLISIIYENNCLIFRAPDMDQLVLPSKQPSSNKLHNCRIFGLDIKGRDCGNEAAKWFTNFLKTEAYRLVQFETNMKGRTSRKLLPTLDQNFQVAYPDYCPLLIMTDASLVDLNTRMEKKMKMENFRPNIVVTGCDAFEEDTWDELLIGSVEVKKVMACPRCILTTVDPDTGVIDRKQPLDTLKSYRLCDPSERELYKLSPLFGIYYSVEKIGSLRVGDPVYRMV
Method: (§1) The turnover rate of the amidoxime 2 was tested by an enzymatic NADH assay ^[38] with the mARC enzyme system in comparison to the model substrate benzamidoxime (BAO).
(§2) Due to this known in vivo studies and to other known prodrugs which are activated by mARC, for example, upamostat and ximelagatran, ^[38] it can be expected that the amidoxime prodrug 2 will also be converted extensively in vivo, and is thus a very suitable prodrug for the amidine 1 and making it orally available.
(§3) The assay was performed as previously described. ^[38] The proteins were dissolved in 20 mM of 2‐(N‐morpholino)ethanesulfonic acid (MES) buffer (pH 6.0) in disposable micro UV cuvettes. Each batch contained 15 μg human mARC, 7 μg B5 and 0.16 μg B5R. The enzymes were preincubated with the respective substrate (concentration 3 mM) for 3 min at 37 °C (total volume 240 μL). This mixture was measured as blank value and immediately mixed with 60 μL NADH (concentration 1 mM). The kinetics were measured over a period of 15 min at 37 °C, with absorption between 300 and 400 nm being measured at intervals of 30 sec. The measurement was stopped when the absorption stopped changing. The measurements were taken with a Varian Cary® 50 UV/Vis spectrophotometer from Agilent, which was tempered with a Varian Cary® PCB‐150 Peltier Controlled Cryobath. The samples were mixed with cold methanol and centrifuged for 5 min at 10 000 rpm, Swing‐out Rotor, and stored at −80 °C for further analysis.
(§4) A Bruker Amazon SL Ion Trap with upstream Agilent 1260 HPLC system was used with a Waters Xterra MS C8, 4.6×50 mm, 3.5 μm column, with Phenomenex, Security Guard C18 precolumn 3×4 mm. A gradient was employed with eluent A: 0.1 % acetic acid Suprapur, Merck, in Aqua Bidest, eluent B: CH3CN, Sigma Aldrich Chromasolv for gradient HPLC. The gradient was changed from 97 % A to 100 % B within 10 min. The injection volume was 1 μL and 10 μL respectively. The column temperature was 20 °C. Software of the HPLC: Hystar 3.2 SR 2. Software to control the mass spectrometer: Bruker Trap Control 7.0 Software to evaluate the data: Bruker Data Analysis 4.0.

[2] = biological target: T2, mARC1 (Homo sapiens, UniProt Q5VT66); assay: as above; assay type: in vitro ADME; settings: for conversion to reduced amidine 1 (LC-MS): mARC1 incubation
T2 sequence (Q5VT66 41-337 limits assumed): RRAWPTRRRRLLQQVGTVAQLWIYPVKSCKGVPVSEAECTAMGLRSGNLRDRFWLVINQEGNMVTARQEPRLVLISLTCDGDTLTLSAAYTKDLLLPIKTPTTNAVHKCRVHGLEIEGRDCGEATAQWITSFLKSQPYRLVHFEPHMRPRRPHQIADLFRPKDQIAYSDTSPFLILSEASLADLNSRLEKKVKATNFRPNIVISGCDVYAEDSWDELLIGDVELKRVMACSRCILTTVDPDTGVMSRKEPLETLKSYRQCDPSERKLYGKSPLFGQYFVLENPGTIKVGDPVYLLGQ
Method: as §1, §2, §3, §4

[3] = PAMPA-GI assay; design: Papp at 2 h: dose or concentration left out as unconfirmed; settings: for Papp at 2 h: PAMPA
Method: The relative passive transcellular diffusion of compounds, expressed as permeability coefficient (Pe), was determined with a permeability equation. ^[45] The permeabilities of 1, 2, and 1400 W were determined at pH 5.0, 6.5, and 7.4 to mimic the physiological conditions of the GI tract (Table 1). […] As the new prodrug was designed for the potential treatment of neurodegenerative diseases, an important parameter is its capability to cross the BBB.
Each donor filtration plate well, carefully impregnated with 5 µL of this solution, was added of 150 μL of […] test compound buffer solutions (phosphate buffer for pH 7.4 and pH 6.5 and hydrochloric acid buffer for pH 1.4). Subsequently, the drug‐filled donor plate was placed onto the acceptor plate prefilled with the same buffer (300 μL) as the acceptor solution. Once replaced the plate lid, the resulting assembled donor‐acceptor plates were incubated at room temperature for 2 h. The concentration in the acceptor and donor solutions were determined by HPLC. The Pe was determined as previously reported. ^[47]

conversion to reduced amidine 1 (LC-MS) [1]: could be found | conversion to reduced amidine 1 (LC-MS) ([1]; listed as amidoxime): completely converted | turnover rate (NADH consumption) compared with BAO ([1]; mARC2 with B5 and B5R, substrate 3 mM, pH 6.0, 37 °C): very similar | conversion to reduced amidine 1 (LC-MS) [2]: could be found | conversion to reduced amidine 1 (LC-MS) ([2]; listed as amidoxime): completely converted | turnover rate (NADH consumption) compared with BAO ([2]; mARC1 with B5 and B5R, substrate 3 mM, pH 6.0, 37 °C): clearly identical | Papp at 2 h ([3]; pH 1.4): 0.66 ×10⁻⁶ cm/s | Papp at 2 h ([3]; pH 6.5): 1.57 ×10⁻⁶ cm/s | Papp at 2 h ([3]; pH 7.4): 2.03 ×10⁻⁶ cm/s | PAMPA-GI Pe (bound stated in text) ([3]; pH 6.5): > 1.5×10^−6 | PAMPA-GI Pe (bound stated in text) ([3]; pH 7.4): > 1.5×10^−6 | melting point: 112 to 115 °C
SMILES: C/C(=N\O)NC(c1ccccc1)c1ccccc1 [Compound 2, (1E)‐N‐(diphenylmethyl)‐N′‐hydroxyethanimidamide]
